In this test the test system is pelvic pain behavior in EAP NOD mice. The test is described as follows: Mast cell function inhibitors on established pelvic pain behavior in EAP model (von Frey tactile allodynia). Conditions: 10 mg/kg each drug, intraperitoneal, at day 10 after PAg injection; tested one hour after drug administration. Type of test: in vivo. The procedure:
Mice injected with rat prostate antigen (PAg) were tested at baseline and 10 days after injection for the development of pain behavior. Mice were treated at day 10 by intraperitoneal injection with saline (Control, A), 10 mg/kg each of cetrizine (H1, B), ranitidine (H2, C), Cromolyn sodium (MC stabilizer, D) or all three drugs (Combination, E) in a 200 μl volume. Following blinding of treatment and control groups, pelvic pain behavior was tested one hour after drug administration.
The experimental autoimmune prostatitis (EAP) model was selected for experiments conducted during development of embodiments of the present invention. Autoimmunity is one of the etiologies for patients with CPPS. Rat prostate antigen instillation in NOD mice provokes a chronic inflammation that is multifocal and evenly distributed in all the prostatic lobes. Pelvic pain was examined in NOD and C57BL/6 (B6) mice using quantitative behavior testing methods to assess tactile sensitivity of the suprapubic region. […] When expressed as increase in pain from baseline there was an approximately 350% increase in pain behavior compared to sham controls (SEE FIG. 1). This indicates the development of chronic pelvic pain in EAP mice and is the first report of chronic pain symptoms in an animal model of prostatitis.
Pelvic pain behavior in the EAP model was inhibited following the establishment of pain. EAP was induced in NOD mice and pelvic pain behavior at baseline and 10 days after disease onset was measured. Mice were administered a mast cell stabilizer, cromolyn sodium; a histamine receptor 1 antagonist, cetirizine; a histamine receptor 2 antagonist, ranitidine; and a combination of all three pharmacological agents or saline as control. Pelvic pain behavior was tested one hour after drug administration.

Molecules are shown by their SMILES.

For `O=C(O)COCCN1CCN(C(c2ccccc2)c2ccc(Cl)cc2)CC1` (stereo not drawn) [cetirizine], the “reduction of pain behavior” value was determined as 13.6%.

On to `O=C(O)c1cc(=O)c2c(OCC(O)COc3cccc4oc(C(=O)O)cc(=O)c34)cccc2o1` [cromolyn sodium], for which the “reduction of pain behavior” value is listed as 39.6%.

On to `CNC(=C[N+](=O)[O-])NCCSCc1ccc(CN(C)C)o1` [ranitidine], for which the “reduction of pain behavior” value is listed as 15.9%.

The values above are taken from US9181577B2, “Treatment of chronic pelvic pain syndrome” (Northwestern University, priority 2010, dated 2015).
